Active and inactive are the calls of the source. The rule behind the calls is not given here.
Assays:
[1] = target: Calcium/calmodulin-dependent protein kinase type 1 (Homo sapiens) (UniProt Q14012); assay: Inhibition of recombinant human CaMK1 (2 to end residues) assessed as residual activity at 10 uM using […] as substrate measured after 40 mins in presence of [gamma33P]ATP by scintillation counting method
Homo sapiens [2] = organism: Homo sapiens; assay: Inhibition of recombinant full-length human PI3K p110alpha/p65alpha (1 to 571 residues) assessed as residual activity at 10 uM using phosphatidylinositol-4, 5-bisphosphate as substrate measured after 40 mins by HTRF assay
Homo sapiens [3] = organism: Homo sapiens; assay: Inhibition of recombinant human Plk4 S34T mutant (1 to 273 residues) assessed as residual activity at 10 uM using casein as substrate measured after 40 mins in presence of [gamma33P]ATP by scintillation counting method
[4] = target: Receptor tyrosine-protein kinase erbB-4 (Homo sapiens) (UniProt Q15303); assay: Inhibition of recombinant human ErbB4 (706 to 991 residues) assessed as residual activity at 10 uM using poly (Glu, Tyr) 4:1 as substrate measured after 40 mins in presence of [gamma33P]ATP by scintillation counting method
Sequence of Receptor tyrosine-protein kinase erbB-4 (Homo sapiens) (Q15303 whole entry, the tested form may be a part): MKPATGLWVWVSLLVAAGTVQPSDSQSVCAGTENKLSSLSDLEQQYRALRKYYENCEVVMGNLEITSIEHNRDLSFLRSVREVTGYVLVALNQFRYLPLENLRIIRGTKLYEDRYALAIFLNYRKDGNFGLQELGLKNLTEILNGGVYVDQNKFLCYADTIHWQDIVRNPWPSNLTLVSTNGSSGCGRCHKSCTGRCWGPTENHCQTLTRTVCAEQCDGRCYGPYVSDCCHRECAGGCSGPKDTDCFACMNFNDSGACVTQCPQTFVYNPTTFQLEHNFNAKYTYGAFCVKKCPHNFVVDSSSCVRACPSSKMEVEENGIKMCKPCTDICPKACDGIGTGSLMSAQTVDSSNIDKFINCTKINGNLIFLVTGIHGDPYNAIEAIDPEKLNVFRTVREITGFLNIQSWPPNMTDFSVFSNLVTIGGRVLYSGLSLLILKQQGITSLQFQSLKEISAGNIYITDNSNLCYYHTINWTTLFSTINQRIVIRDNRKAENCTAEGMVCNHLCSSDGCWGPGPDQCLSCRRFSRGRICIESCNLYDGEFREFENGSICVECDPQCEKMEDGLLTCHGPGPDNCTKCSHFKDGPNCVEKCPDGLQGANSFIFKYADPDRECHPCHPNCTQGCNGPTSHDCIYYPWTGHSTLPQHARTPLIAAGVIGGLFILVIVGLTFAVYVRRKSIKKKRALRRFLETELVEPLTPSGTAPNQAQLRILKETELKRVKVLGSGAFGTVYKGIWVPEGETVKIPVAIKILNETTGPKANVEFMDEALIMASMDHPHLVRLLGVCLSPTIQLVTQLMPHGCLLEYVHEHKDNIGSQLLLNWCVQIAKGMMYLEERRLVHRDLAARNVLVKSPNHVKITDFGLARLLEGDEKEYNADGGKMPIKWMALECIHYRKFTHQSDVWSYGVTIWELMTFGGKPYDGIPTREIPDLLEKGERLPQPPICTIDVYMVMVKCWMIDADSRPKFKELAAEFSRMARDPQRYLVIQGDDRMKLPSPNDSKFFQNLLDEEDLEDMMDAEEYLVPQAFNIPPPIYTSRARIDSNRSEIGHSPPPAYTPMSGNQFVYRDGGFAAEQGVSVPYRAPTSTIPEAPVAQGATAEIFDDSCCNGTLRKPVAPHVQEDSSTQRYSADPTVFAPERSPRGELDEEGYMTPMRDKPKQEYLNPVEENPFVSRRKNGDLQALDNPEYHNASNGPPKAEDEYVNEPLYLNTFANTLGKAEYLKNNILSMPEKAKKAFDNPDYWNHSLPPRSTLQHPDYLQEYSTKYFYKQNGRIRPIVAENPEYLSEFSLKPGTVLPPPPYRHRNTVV

HCT-116 [5] = assay: Antitumor activity against human HCT116 cells xenografted in nude BALB/c mouse assessed as tumor growth inhibition at 40 mg/kg, po administered once daily for 4 weeks measured post-last dose relative to control; assay type: functional; settings: HCT-116, po, 672 h, read-out: TGI
[6] = target: Tyrosine-protein kinase ABL1 (Homo sapiens) (UniProt P00519); assay: Inhibition of recombinant human ABL (27 to end residues) assessed as residual activity at 10 uM using EAIYAAPFAKKK as substrate measured after 40 mins in presence of [gamma33P]ATP by scintillation counting method
Sequence of Tyrosine-protein kinase ABL1 (Homo sapiens) (P00519 whole entry): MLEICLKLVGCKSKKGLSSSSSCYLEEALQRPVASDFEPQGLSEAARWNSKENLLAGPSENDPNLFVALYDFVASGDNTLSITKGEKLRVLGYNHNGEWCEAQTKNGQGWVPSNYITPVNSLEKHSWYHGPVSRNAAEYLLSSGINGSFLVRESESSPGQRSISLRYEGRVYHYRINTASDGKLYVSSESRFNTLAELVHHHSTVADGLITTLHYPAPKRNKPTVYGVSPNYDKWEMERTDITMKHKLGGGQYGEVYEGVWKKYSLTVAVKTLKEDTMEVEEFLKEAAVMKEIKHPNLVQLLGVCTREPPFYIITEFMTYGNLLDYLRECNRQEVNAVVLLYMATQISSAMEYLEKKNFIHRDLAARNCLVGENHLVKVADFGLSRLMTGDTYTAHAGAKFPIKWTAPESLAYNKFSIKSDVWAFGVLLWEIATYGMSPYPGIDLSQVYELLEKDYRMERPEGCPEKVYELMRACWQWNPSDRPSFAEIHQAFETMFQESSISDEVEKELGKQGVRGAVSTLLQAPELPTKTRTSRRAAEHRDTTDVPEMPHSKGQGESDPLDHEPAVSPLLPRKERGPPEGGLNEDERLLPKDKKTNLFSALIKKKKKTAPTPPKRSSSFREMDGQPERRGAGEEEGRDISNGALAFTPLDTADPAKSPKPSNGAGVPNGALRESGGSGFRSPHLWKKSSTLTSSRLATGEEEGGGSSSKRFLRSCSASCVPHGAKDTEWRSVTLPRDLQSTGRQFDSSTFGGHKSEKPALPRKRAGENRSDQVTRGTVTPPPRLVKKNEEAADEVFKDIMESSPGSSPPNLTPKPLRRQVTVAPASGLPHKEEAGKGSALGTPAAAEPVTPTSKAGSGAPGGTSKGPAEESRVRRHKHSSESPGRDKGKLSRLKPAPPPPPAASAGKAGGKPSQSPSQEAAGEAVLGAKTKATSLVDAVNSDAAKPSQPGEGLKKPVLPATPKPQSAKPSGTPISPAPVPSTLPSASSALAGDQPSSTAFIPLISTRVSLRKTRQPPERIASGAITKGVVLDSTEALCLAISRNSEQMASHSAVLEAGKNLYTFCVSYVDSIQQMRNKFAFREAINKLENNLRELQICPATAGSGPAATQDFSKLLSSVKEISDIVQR

Homo sapiens [7] = organism: Homo sapiens; assay: Inhibition of recombinant human MARK1 T20S mutant (2 to end residues) assessed as residual activity at 10 uM using KKKVSRSGLYRSPSMPENLNRPR as substrate measured after 40 mins in presence of [gamma33P]ATP by scintillation counting method
[8] = target: Serine/threonine-protein kinase mTOR (Homo sapiens) (UniProt P42345); assay: Inhibition of recombinant full-length human mTOR assessed as residual activity at 10 uM measured after 40 mins in presence of [gamma33P]ATP by scintillation counting method
PLC-PRF-5 = assay: Antiproliferative activity against human PLC/PRF/5 cells assessed as reduction in cell viability after 72 hrs by MTT assay; assay type: functional, cell-based; settings: PLC-PRF-5, 72 h
SW-620 [9] = assay: Induction of apoptosis in human SW620 cells assessed as late apoptotic cells at 25 nM measured after 48 hrs by Annexin V-FITC/propidium iodide staining-based flow cytometry (reference value: 1.8%); assay type: functional
[10] = target: Activin receptor type-1-like (Homo sapiens) (UniProt P37023); assay: Inhibition of recombinant human ALK1 (142 to end residues) assessed as residual activity at 10 uM using casein as substrate measured after 40 mins in presence of [gamma33P]ATP by scintillation counting method
SW-620 [11] = assay: Induction of apoptosis in human SW620 cells assessed as necrotic cells at 100 nM measured after 48 hrs by Annexin V-FITC/propidium iodide staining-based flow cytometry (reference value: 2.71%); assay type: functional
HCT-116 [12] = assay: Induction of apoptosis in human HCT116 cells assessed as decrease in Bcl2 expression up to 200 nM measured after 48 hrs by Western blot analysis; assay type: functional, cell-based
[13] = target: Ribosomal protein S6 kinase alpha-6 (Homo sapiens) (UniProt Q9UK32); assay: Inhibition of recombinant full-length human Rsk4 assessed as residual activity at 10 uM using LRRASLG as substrate measured after 40 mins in presence of [gamma33P]ATP by scintillation counting method
[14] = tested on: Fibroblast growth factor receptor 1 (Homo sapiens), P11362 [V561M]; assay: Inhibition of recombinant human FGFR1 V561M mutant (456 to 765 residues) assessed as residual activity at 10 uM using GGEEEEYFELVKKKK as substrate measured after 40 mins in presence of [gamma33P]ATP by scintillation counting method
Mus musculus [15] = organism: Mus musculus; assay: Inhibition of recombinant full-length mouse PI3K p110alpha/p85alpha E545K mutant assessed as residual activity at 10 uM using phosphatidylinositol-4, 5-bisphosphate as substrate measured after 40 mins by HTRF assay
[16] = target: Homeodomain-interacting protein kinase 1 (Homo sapiens) (UniProt Q86Z02); assay: Inhibition of recombinant human activated HIPK1 (158 to 555 residues) assessed as residual activity at 10 uM using myelin basic protein as substrate measured after 40 mins in presence of [gamma33P]ATP by scintillation counting method
Sequence of Homeodomain-interacting protein kinase 1 (Homo sapiens) (Q86Z02 whole entry, looked up, the tested form may be a part): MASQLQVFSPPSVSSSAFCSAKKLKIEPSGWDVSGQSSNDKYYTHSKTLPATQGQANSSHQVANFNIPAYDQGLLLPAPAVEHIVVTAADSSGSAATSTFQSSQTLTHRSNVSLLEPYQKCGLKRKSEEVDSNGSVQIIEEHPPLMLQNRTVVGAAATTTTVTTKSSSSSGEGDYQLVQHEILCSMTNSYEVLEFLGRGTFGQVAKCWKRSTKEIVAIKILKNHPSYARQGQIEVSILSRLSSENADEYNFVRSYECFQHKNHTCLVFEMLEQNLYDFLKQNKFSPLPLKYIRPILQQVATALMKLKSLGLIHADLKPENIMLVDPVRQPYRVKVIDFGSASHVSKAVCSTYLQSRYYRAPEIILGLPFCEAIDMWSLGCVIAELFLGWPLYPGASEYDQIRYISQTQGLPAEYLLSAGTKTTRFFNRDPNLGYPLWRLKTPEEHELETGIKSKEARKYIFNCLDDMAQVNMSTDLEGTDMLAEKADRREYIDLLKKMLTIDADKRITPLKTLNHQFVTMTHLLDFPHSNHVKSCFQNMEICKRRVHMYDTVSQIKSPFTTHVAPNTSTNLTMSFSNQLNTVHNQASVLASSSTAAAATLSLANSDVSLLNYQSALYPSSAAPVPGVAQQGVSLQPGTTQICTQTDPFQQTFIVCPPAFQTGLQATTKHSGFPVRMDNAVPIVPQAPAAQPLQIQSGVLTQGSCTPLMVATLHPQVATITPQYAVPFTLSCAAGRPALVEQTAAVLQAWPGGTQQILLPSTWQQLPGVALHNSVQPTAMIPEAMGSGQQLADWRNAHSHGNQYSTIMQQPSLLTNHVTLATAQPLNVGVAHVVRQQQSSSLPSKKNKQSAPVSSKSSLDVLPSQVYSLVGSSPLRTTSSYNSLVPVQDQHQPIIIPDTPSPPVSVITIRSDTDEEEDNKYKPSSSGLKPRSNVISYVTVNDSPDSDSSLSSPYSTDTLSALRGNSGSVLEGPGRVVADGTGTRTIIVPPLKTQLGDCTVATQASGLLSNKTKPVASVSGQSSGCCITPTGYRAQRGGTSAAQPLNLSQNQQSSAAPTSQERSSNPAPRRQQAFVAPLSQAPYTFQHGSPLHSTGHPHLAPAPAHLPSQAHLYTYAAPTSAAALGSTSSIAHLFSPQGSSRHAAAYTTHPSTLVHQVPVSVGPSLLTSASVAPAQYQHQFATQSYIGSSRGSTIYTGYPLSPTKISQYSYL

[17] = target: Eukaryotic translation initiation factor 2-alpha kinase 1 (Homo sapiens) (UniProt Q9BQI3); assay: Inhibition of recombinant human HRI (140 to end residues) assessed as residual activity at 10 uM using RSRSRSRSRSRSRSR as substrate measured after 120 mins in presence of [gamma33P]ATP by scintillation counting method
[18] = target: Mitogen-activated protein kinase 14 (Homo sapiens) (UniProt Q16539); assay: Inhibition of recombinant full-length human SAPK2a assessed as residual activity at 10 uM using myelin basic protein as substrate measured after 40 mins in presence of [gamma33P]ATP by scintillation counting method
Sequence of Mitogen-activated protein kinase 14 (Homo sapiens) (Q16539 whole entry): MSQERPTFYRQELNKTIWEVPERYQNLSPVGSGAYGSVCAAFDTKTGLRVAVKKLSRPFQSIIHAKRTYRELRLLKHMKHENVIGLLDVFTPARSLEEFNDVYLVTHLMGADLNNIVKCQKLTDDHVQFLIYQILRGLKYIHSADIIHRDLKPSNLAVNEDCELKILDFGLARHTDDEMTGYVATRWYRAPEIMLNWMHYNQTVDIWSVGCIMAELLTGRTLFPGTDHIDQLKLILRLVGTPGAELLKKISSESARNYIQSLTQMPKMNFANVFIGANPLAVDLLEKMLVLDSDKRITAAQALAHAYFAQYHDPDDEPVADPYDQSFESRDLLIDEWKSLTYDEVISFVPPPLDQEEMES

[19] = target: Protein kinase C beta type (Homo sapiens) (UniProt P05771); assay: Inhibition of recombinant human PKCbeta2 (2 to end residues) assessed as residual activity at 10 uM using histone H1 as substrate measured after 40 mins in presence of [gamma33P]ATP by scintillation counting method
Sequence of Protein kinase C beta type (Homo sapiens) (P05771 2-671 limits assumed): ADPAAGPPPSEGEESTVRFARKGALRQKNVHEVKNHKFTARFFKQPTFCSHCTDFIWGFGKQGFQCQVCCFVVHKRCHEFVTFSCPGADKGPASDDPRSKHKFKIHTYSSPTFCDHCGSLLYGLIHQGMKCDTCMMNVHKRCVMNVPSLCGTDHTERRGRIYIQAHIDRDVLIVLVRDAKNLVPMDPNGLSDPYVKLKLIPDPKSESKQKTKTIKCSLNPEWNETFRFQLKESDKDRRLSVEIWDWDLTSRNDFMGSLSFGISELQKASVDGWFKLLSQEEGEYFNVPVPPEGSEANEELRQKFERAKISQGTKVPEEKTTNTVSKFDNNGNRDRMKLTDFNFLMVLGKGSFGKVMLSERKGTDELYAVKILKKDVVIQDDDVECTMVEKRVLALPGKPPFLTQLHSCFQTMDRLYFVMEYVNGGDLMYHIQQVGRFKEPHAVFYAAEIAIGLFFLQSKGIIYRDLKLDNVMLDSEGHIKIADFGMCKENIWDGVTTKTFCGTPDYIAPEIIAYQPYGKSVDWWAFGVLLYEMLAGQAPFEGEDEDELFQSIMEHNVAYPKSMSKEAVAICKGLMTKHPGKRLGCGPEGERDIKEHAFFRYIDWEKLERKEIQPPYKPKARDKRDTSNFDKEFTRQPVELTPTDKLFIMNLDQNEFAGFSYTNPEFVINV

Mus musculus [20] = organism: Mus musculus; assay: Inhibition of recombinant full-length mouse PI3K p110beta/p85beta R123L mutant assessed as residual activity at 10 uM using phosphatidylinositol-4, 5-bisphosphate as substrate measured after 40 mins by HTRF assay
[21] = tested on: Tyrosine-protein kinase receptor UFO (Homo sapiens), P30530 [Q764R]; assay: Inhibition of recombinant human AXL Q764R mutant (473 to end residues) assessed as residual activity at 10 uM using KKSRGDYMTMQIG as substrate measured after 40 mins in presence of [gamma33P]ATP by scintillation counting method
HCT-116 [22] = assay: Induction of apoptosis in human HCT116 cells measured after 48 hrs by Annexin V-FITC/propidium iodide staining-based flow cytometric analysis; assay type: functional, cell-based
[23] = target: Tyrosine-protein kinase receptor TYRO3 (Homo sapiens) (UniProt Q06418); assay: Inhibition of human RSE (451 to end residues) using KVEKIGEGTYGVVYK as substrate measured after 40 mins in presence of [gamma33P]ATP by scintillation counting method; set-up: scale not given: the % may be the effect or the level left
Homo sapiens [24] = organism: Homo sapiens; assay: Inhibition of recombinant human PRAK R291E mutant assessed as residual activity at 10 uM using KKLRRTLSVA as substrate measured after 40 mins in presence of [gamma33P]ATP by scintillation counting method
[25] = target: TGF-beta receptor type-2 (Homo sapiens) (UniProt P37173); assay: Inhibition of human TGFBR2 (188 to end residues) using myelin basic protein as substrate measured after 120 mins in presence of [gamma33P]ATP by scintillation counting method; set-up: scale not given: the % may be the effect or the level left

Sequence of Calcium/calmodulin-dependent protein kinase type 1 (Homo sapiens) (Q14012 whole entry, looked up, the tested form may be a part): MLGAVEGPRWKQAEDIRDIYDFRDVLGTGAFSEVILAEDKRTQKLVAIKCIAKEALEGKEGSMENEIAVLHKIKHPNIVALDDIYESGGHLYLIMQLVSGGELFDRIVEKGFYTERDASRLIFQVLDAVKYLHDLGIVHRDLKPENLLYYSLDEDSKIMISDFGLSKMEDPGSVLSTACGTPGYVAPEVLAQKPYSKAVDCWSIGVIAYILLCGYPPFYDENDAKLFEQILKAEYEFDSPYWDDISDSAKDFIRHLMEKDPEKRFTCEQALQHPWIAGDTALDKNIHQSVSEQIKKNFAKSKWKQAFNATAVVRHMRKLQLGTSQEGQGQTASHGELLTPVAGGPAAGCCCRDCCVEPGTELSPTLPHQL

Question: How did the Activity [1] turn out when `Cc1cc(C)c(CNc2nc(Cl)nc3c2ncn3C2CCCC2)c(=O)[nH]1` was run?
Answer: 109%

Question: What about the Activity (Homo sapiens [2]) of the same compound?
Answer: 93%

Question: And the Activity (Homo sapiens [3])?
Answer: 98.5%

Question: What about the Activity [4] of the same compound?
Answer: 103%

Question: And the inhibition in vivo at 40 mg/kg (HCT-116 [5])?
Answer: 39.9%

Question: What about the Activity [6] of the same compound?
Answer: 108%

Question: And the Activity (Homo sapiens [7])?
Answer: 112%

Question: What about the Activity [8] of the same compound?
Answer: 78.5%

Question: What about the IC50 (PLC-PRF-5) of the same compound?
Answer: 286 nM

Question: What about the Activity (SW-620 [9]) of the same compound?
Answer: 4.23%

Question: And the Activity [10]?
Answer: 98%

Question: And the Activity (SW-620 [11])?
Answer: 6.55%

Question: What about the Activity (HCT-116 [12]) of the same compound?
Answer: Active

Question: And the Activity [13]?
Answer: 98.5%

Question: And the Activity [14]?
Answer: 95.5%

Question: And the Activity (Mus musculus [15])?
Answer: 99%

Question: What about the Activity [16] of the same compound?
Answer: 100%

Question: And the Activity [17]?
Answer: 102%

Question: What about the Activity [18] of the same compound?
Answer: 109%

Question: What about the Activity [19] of the same compound?
Answer: 106%

Question: What about the Activity (Mus musculus [20]) of the same compound?
Answer: 101%

Question: And the Activity [21]?
Answer: 107%

Question: What about the Activity (HCT-116 [22]) of the same compound?
Answer: Dose-dependent effect

Question: What about the Activity [23] of the same compound?
Answer: 126%

Question: And the Activity (Homo sapiens [24])?
Answer: 125%

Question: What about the Activity [25] of the same compound?
Answer: 71%

Reference: ChEMBL document CHEMBL4311992, “Discovery of 3-(((9H-purin-6-yl)amino)methyl)-4,6-dimethylpyridin-2(1H)-one derivatives as novel tubulin polymerization inhibitors for treatment of cancer” (Eur J Med Chem, 2019)
